Experimental findings from ChEMBL document CHEMBL3045954, “Synthesis and antidepressant activity of di substituted-5-aryl-1,2,4-triazoles” (Med Chem Res, 2012) are described below.

The structures appear in SMILES notation. Calls of active or inactive are those of the source. The rule behind the calls is not given here.

For data set [1], the system named is Mus musculus. In words: Antidepressant activity in overnight fasted Mus musculus (mouse) assessed as decrease in immobility time at 100 mg/kg, ip administered 60 min prior to testing measured for 5 min by tail suspension test (reference value: 169.8 +/- 13 secs). The data set is classed as functional. The note with it: route intraperitoneal.
For data set [2], the system named is Mus musculus. In words: Antidepressant activity in overnight fasted Mus musculus (mouse) assessed as decrease in immobility time at 30 mg/kg, ip administered 60 min prior to testing measured for 5 min by tail suspension test (reference value: 169.8 +/- 13 secs). The data set is classed as functional. The note with it: route intraperitoneal.
Data set [3] deals with Mus musculus. In words: Antidepressant activity in overnight fasted Mus musculus (mouse) assessed as decrease in immobility time at 10 mg/kg, ip administered 60 min prior to testing measured for 5 min by tail suspension test (reference value: 169.8 +/- 13 secs). It is filed as functional. Conditions: route intraperitoneal.
The species named for data set [4] is Mus musculus. Briefly: Behavioral effect in Mus musculus (mouse) assessed as effect on alertness after 3 hr. It is filed as functional, organism-based.
Data set [5] relates to Mus musculus. In words: Acute toxicity in Mus musculus Swiss albino (mouse) up to 2000 mg/kg, ip measured for 1 month. The note with it: in vivo, 730.5 h. On the set-up: dose 2000 mg/kg, route intraperitoneal. The data set is classed as organism-based.

For the molecule `c1ccc(-c2nc(SCCN(C3CCCCC3)C3CCCCC3)n[nH]2)cc1`, the Time was found to be 101.7 s with Mus musculus [1], 109.7 s in the data set on Mus musculus [2] and 117 s in the data set with Mus musculus [3]. The result in the data set filed under Mus musculus [4] was inactive. Also, in the data set on Mus musculus [5], the Activity result was “Non-toxic”.

For `CN(C)CCSc1n[nH]c(-c2ccc(Cl)cc2Cl)n1`, the Time turned out to be 96.2 s in the data set with Mus musculus [1], 101.8 s with Mus musculus [2] and 109 s in the data set on Mus musculus [3]. Further, the outcome in the data set listed under Mus musculus [4] was inactive. In addition, the Activity entry in the data set with Mus musculus [5] was “Non-toxic”.

For the molecule `Clc1ccc(-c2nc(SCCN(C3CCCCC3)C3CCCCC3)n[nH]2)cc1`, the Time was 89.2 s in the data set on Mus musculus [1], 94.8 s with Mus musculus [2] and 96.8 s with Mus musculus [3]. In the data set filed under Mus musculus [4], the result was inactive. For the same molecule, the Activity result with Mus musculus [5] is on record as “Non-toxic”.

For `Clc1ccc(-c2nc(SCCN(C3CCCCC3)C3CCCCC3)n[nH]2)c(Cl)c1`, the figures for the Time in the data set on Mus musculus [1], in the data set with Mus musculus [2] and with Mus musculus [3] were 90.5 s, 94.5 s and 96.5 s, respectively. In addition, the outcome in the data set filed under Mus musculus [4] was inactive. The Activity entry in the data set on Mus musculus [5] was “Non-toxic”.

As to `Oc1ccc(-c2nc(SCCN(C3CCCCC3)C3CCCCC3)n[nH]2)cc1`, the Time is 112.7 s in the data set on Mus musculus [1], 126.2 s in the data set with Mus musculus [2] and 157.5 s in the data set with Mus musculus [3]. In addition, the result in the data set filed under Mus musculus [4] was inactive. Further, the Activity result in the data set on Mus musculus [5] is given as “Non-toxic”.

For `COc1ccc(-c2nc(SCCN(C3CCCCC3)C3CCCCC3)n[nH]2)cc1`, the Time in the data set on Mus musculus [1] is on record as 94.8 s; with Mus musculus [2] it was 96.3 s; with Mus musculus [3], 101.3 s. The outcome in the data set filed under Mus musculus [4] was inactive. For the same molecule, the Activity result in the data set with Mus musculus [5] is reported as “Non-toxic”.

Consider `CCN(CC)CCSc1n[nH]c(-c2ccc(OC)cc2)n1`, for which the Time in the data set on Mus musculus [1] is on record as 103.8 s; in the data set with Mus musculus [2] it was 118.5 s; in the data set with Mus musculus [3], 139 s. For the same molecule, the result in the data set filed under Mus musculus [4] was inactive. Moreover, the Activity entry in the data set with Mus musculus [5] is on record as “Non-toxic”.

Turning to `CN(C)CCSc1n[nH]c(-c2ccc(O)cc2)n1`, the Time was determined as 149 s in the data set on Mus musculus [1], 150.3 s in the data set on Mus musculus [2] and 161.2 s in the data set with Mus musculus [3]. Also, the result in the data set filed under Mus musculus [4] was inactive. Also, the Activity result in the data set on Mus musculus [5] is on record as “Non-toxic”.

`CCN(CC)CCSc1n[nH]c(-c2ccc(O)cc2)n1`: the Time with Mus musculus [1] was 151.8 s; in the data set on Mus musculus [2], 167.3 s; in the data set with Mus musculus [3], 171.8 s. Moreover, the outcome in the data set filed under Mus musculus [4] was inactive. For the same molecule, the Activity result with Mus musculus [5] is reported as “Non-toxic”.

With `CN(C)CCCN1c2ccccc2CCc2ccccc21` [IMIPRAMINE], the Time with Mus musculus [3] came out at 95.8 s.

As to `CN(C)CCSc1n[nH]c(-c2ccc(Cl)cc2)n1`, the Time in the data set with Mus musculus [1] came out at 96 s; in the data set on Mus musculus [2] it was 102.2 s; in the data set on Mus musculus [3] it was 109.2 s. In addition, the result in the data set filed under Mus musculus [4] was inactive. Moreover, the Activity result with Mus musculus [5] is reported as “Non-toxic”.

As to `CCN(CC)CCSc1n[nH]c(-c2ccccc2O)n1`, the Time amounted to 137.3 s in the data set with Mus musculus [1], 163.5 s with Mus musculus [2] and 173.8 s with Mus musculus [3]. Besides, in the data set filed under Mus musculus [4], the result was inactive. Also, the Activity result in the data set with Mus musculus [5] was “Non-toxic”.

Turning to `CN(C)CCSc1n[nH]c(-c2ccccc2)n1`, the Time in the data set with Mus musculus [1] was found to be 102 s; with Mus musculus [2], 110.3 s; in the data set with Mus musculus [3] it was 117.2 s. Besides, the result in the data set filed under Mus musculus [4] was inactive. For the same molecule, the Activity result in the data set on Mus musculus [5] is “Non-toxic”.

Take `CCN(CC)CCSc1n[nH]c(-c2ccc(C)cc2)n1`: the Time is 151.2 s in the data set with Mus musculus [1], 168.2 s in the data set with Mus musculus [2] and 178.3 s with Mus musculus [3]. Further, the outcome in the data set listed under Mus musculus [4] was inactive. For the same molecule, in the data set on Mus musculus [5], the Activity result was “Non-toxic”.

As for `CCN(CC)CCSc1n[nH]c(-c2ccc(Cl)cc2)n1`, the Time in the data set with Mus musculus [1] is recorded as 103.8 s; in the data set on Mus musculus [2] it was 115 s; in the data set with Mus musculus [3], 129.7 s. Also, the result in the data set filed under Mus musculus [4] was inactive. The Activity result in the data set on Mus musculus [5] is listed as “Non-toxic”.

For the molecule `Cc1ccc(-c2nc(SCCN(C3CCCCC3)C3CCCCC3)n[nH]2)cc1`, the Time worked out at 150 s in the data set with Mus musculus [1], 151.3 s in the data set with Mus musculus [2] and 165 s with Mus musculus [3]. Further, in the data set filed under Mus musculus [4], the result was inactive. In addition, in the data set on Mus musculus [5], the Activity entry is listed as “Non-toxic”.

Regarding `COc1ccc(-c2nc(SCCN(C)C)n[nH]2)cc1`, the Time turned out to be 103.8 s in the data set with Mus musculus [1], 111 s in the data set with Mus musculus [2] and 116.3 s with Mus musculus [3]. Further, the outcome in the data set listed under Mus musculus [4] was inactive. For the same molecule, the Activity entry in the data set with Mus musculus [5] is reported as “Non-toxic”.

As to `CCN(CC)CCSc1n[nH]c(-c2ccc(Cl)cc2Cl)n1`, the Time came out at 103.2 s in the data set on Mus musculus [1], 110 s with Mus musculus [2] and 121.8 s in the data set on Mus musculus [3]. In addition, the result in the data set listed under Mus musculus [4] was inactive. In the data set with Mus musculus [5], the Activity entry is “Non-toxic”.

For the molecule `Oc1ccccc1-c1nc(SCCN(C2CCCCC2)C2CCCCC2)n[nH]1`, the results for the Time in the data set on Mus musculus [1], in the data set with Mus musculus [2] and in the data set on Mus musculus [3] were 150 s, 149.3 s and 162.5 s, respectively. For the same molecule, in the data set filed under Mus musculus [4], the result was inactive. Also, the Activity entry with Mus musculus [5] is “Non-toxic”.

Consider `Cc1ccc(-c2nc(SCCN(C)C)n[nH]2)cc1`, for which the Time with Mus musculus [1] stood at 152.8 s; with Mus musculus [2], 168.2 s; with Mus musculus [3], 172.8 s. Besides, in the data set filed under Mus musculus [4], the result was inactive. The Activity result in the data set on Mus musculus [5] is given as “Non-toxic”.

Regarding `CN(C)CCSc1n[nH]c(-c2ccccc2O)n1`, the Time was 150 s in the data set with Mus musculus [1], 150.8 s in the data set with Mus musculus [2] and 164.8 s with Mus musculus [3]. Besides, the outcome in the data set listed under Mus musculus [4] was inactive. In addition, the Activity entry with Mus musculus [5] is given as “Non-toxic”.

For `CCN(CC)CCSc1n[nH]c(-c2ccccc2)n1`, the results for the Time in the data set on Mus musculus [1], with Mus musculus [2] and with Mus musculus [3] were 108.3 s, 120.7 s and 145.8 s, respectively. Moreover, the outcome in the data set listed under Mus musculus [4] was inactive. Also, in the data set with Mus musculus [5], the Activity result is “Non-toxic”.
